pEC50: −log10 of the molar value. Where “and” joins values, the source holds several entries; their conditions need not be identical. Equal values may be shown once. Read-outs that look alike come from different tables or passages of the source.
How the values were obtained:
[1] = test system: SARS-CoV-2 (B.1); test: Anti-SARS-CoV-2 activity in Vero E6 cells (viral yield by qRT-PCR); type: cell-based
[2] = Permeability and efflux ratio in Caco-2 cells; type: in vitro ADME; details: human
Description: ATV019, and ATV020 in Caco-2 cells.
Compound Caco-2 AB/BA (Papp (10-6 cm/s)) a Efflux ratio

[3] = test system: SARS-CoV-2 (Beta, B.1.351); test: microbe, parasite or virus in culture; type: cell-based; details: for pEC50: read-out: EC50 in Vero E6 cells, SARS-CoV-2 (Beta, B.1.351); for % Inhibition: beta
[4] = test system: SARS-CoV-2 (B.1) in Huh7 cells; test: Anti-SARS-CoV-2 activity in Huh7 cells (viral yield by qRT-PCR); type: cell-based; details: B.1, MOI 0.05, 48 h
[5] = test system: Vero E6 cells; test: CCK-8 cell viability assay; type: cell-based, African green monkey; details: individual replicate values, Fig.S4
Summary of the method: (§1)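 Vero E6 cells, 20,000/well, exposed to compound at 0–200 μM (0, 0.01, 0.1, 1, 5, 10, 50, 75, 100, 200 μM) for 48 h; viability read by CCK-8 and expressed as percentage versus drug concentration, mean ± SD.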

[6] = CCK-8 cell viability assay; type: cell-based, African green monkey; details: African green monkey; Vero E6 cells, 48 h, CCK8
Summary of the method: as §1

[7] = test system: SARS-CoV-2 (Delta, B.1.617.2); test: microbe, parasite or virus in culture; type: cell-based; details: for % Inhibition: delta
[8] = test system: SARS-CoV-2 replicon system (pBAC-SARS-CoV-2-Replicon-Luc); test: microbe, parasite or virus in culture; type: cell-based; details: Severe acute respiratory syndrome coronavirus 2, HEK-293T, 60 h
[9] = Tissue distribution study in rats; type: in vivo, Sprague Dawley rats; details: rat, oral 100 mg/kg; for Cmax, RTP in kidney / Cmax, RTP in lung / Cmax, GS-441525 in brain / Cmax, GS-441525 in kidney / Cmax, GS-441525 in lung: individual animals
Method: Three rats in each group were anesthetized at 1-, 4-, and 24-hours post-dosing. Blood samples were collected into the heparinized tubes which containing PhosSTOP and DTNB and centrifuged. Tissue samples, including liver, kidney, and lung were harvested after perfusion with saline and immediately homogenized for further analysis as previously described ([64]). […] For RMP and RTP determination, 50 μL of plasma or homogenate was immediately added to 150 μL of 2% formic acid and 5 μL of 10 μM ^13C,^15N-adenosine triphosphate (ATP) aqueous solution, then vortexed thoroughly and centrifuged at 4°C. Supernatant in a volume of 180 μL was mixed with an equivalent volume of water for solid-phase extraction (SPE) with a weak anion exchange plate (Waters Oasis WAX μElution plate). Finally, the eluate was gently evaporated to dryness under a gentle stream of air, and the residue was reconstituted with 100 μL H2O for analysis on a Waters Positive Pressure-96 processor.

SMILES: N#C[C@@]1(c2ccc3c(N)ncnn23)O[C@H](CO)[C@@H](O)[C@H]1O [GS-441524, reference compound]
- % Inhibition ([1]; 2 μM, replicates, sheet Fig.S3): 71.478%
- % Inhibition ([1]; 5 μM, replicates, sheet Fig.S3): 85.4877%
- % Inhibition ([1]; 10 μM, replicates, sheet Fig.S3): 86.8803%
- % Inhibition ([1]; B.1, 1 uM, Vero E6, replicates, 1 µM): 3.349%
- % Inhibition ([1]; B.1, 2 uM, Vero E6, replicates, 2 µM): 80.3269%
- % Inhibition ([1]; B.1, 5 uM, Vero E6, replicates, 5 µM): 96.5344%
- % Inhibition ([1]; B.1, 10 uM, Vero E6, replicates, 10 µM): 98.7837%
- % Inhibition ([1]; B.1, 50 uM, Vero E6, replicates, 50 µM): 98.8136%
- inhibition at 0.1 µM ([1]; Severe acute respiratory syndrome coronavirus 2, Vero C1008, 0.1 μM, replicates, sheet Fig.S3): 0%
- inhibition at 0.5 µM ([1]; Severe acute respiratory syndrome coronavirus 2, Vero C1008, 0.5 μM, replicates, sheet Fig.S3): 0%
- inhibition at 1 µM ([1]; Severe acute respiratory syndrome coronavirus 2, Vero C1008, 1 μM, replicates, sheet Fig.S3): 0%
- inhibition at 2 µM ([1]; Severe acute respiratory syndrome coronavirus 2, Vero C1008, 2 μM, replicates, sheet Fig.S3): 72.7%
- inhibition at 5 µM ([1]; Severe acute respiratory syndrome coronavirus 2, Vero C1008, 5 μM, replicates, sheet Fig.S3): 85.9%
- inhibition at 10 µM ([1]; Severe acute respiratory syndrome coronavirus 2, Vero C1008, 10 μM, replicates, sheet Fig.S3): 90.7%
- inhibition at 0.01 µM ([1]; Severe acute respiratory syndrome coronavirus 2, Vero C1008, B.1, 0.01 uM, Vero E6, replicates): 0%
- inhibition at 0.1 µM ([1]; Severe acute respiratory syndrome coronavirus 2, Vero C1008, B.1, 0.1 uM, Vero E6, replicates): 0%
- inhibition at 0.25 µM ([1]; Severe acute respiratory syndrome coronavirus 2, Vero C1008, B.1, 0.25 uM, Vero E6, replicates): 0%
- inhibition at 0.5 µM ([1]; Severe acute respiratory syndrome coronavirus 2, Vero C1008, B.1, 0.5 uM, Vero E6, replicates): 0%
- inhibition at 2 µM ([1]; Severe acute respiratory syndrome coronavirus 2, Vero C1008, B.1, 2 uM, Vero E6, replicates): 72.6%
- inhibition at 5 µM ([1]; Severe acute respiratory syndrome coronavirus 2, Vero C1008, B.1, 5 uM, Vero E6, replicates): 95.7%
- inhibition at 10 µM ([1]; Severe acute respiratory syndrome coronavirus 2, Vero C1008, B.1, 10 uM, Vero E6, replicates): 98.5%
- inhibition at 50 µM ([1]; Severe acute respiratory syndrome coronavirus 2, Vero C1008, B.1, 50 uM, Vero E6, replicates): 98.7%
- EC90 ([1]; Severe acute respiratory syndrome coronavirus 2, Vero C1008, read-out: EC90 (Confidence 95%)): 2.39 µM
- pEC50 ([1]; Severe acute respiratory syndrome coronavirus 2, Vero C1008, MOI 0.05, 48 h): 5.77
- Papp A→B ([2]; AB): 1.22 ×10⁻⁶ cm/s
- Papp B→A ([2]; BA): 1.2 ×10⁻⁶ cm/s
- pEC50 ([3]; Severe acute respiratory syndrome coronavirus 2, Vero C1008, 48 h): 5.87
- inhibition at 0.01 µM ([3]; Severe acute respiratory syndrome coronavirus 2, Vero C1008, beta, 0.01 uM, Vero E6, replicates): 0%
- inhibition at 0.1 µM ([3]; Severe acute respiratory syndrome coronavirus 2, Vero C1008, beta, 0.1 uM, Vero E6, replicates): 0%
- inhibition at 0.25 µM ([3]; Severe acute respiratory syndrome coronavirus 2, Vero C1008, beta, 0.25 uM, Vero E6, replicates): 0%
- inhibition at 0.5 µM ([3]; Severe acute respiratory syndrome coronavirus 2, Vero C1008, beta, 0.5 uM, Vero E6, replicates): 0%
- inhibition at 1 µM ([3]; Severe acute respiratory syndrome coronavirus 2, Vero C1008, beta, 1 uM, Vero E6, replicates): 21.8%
- inhibition at 2 µM ([3]; Severe acute respiratory syndrome coronavirus 2, Vero C1008, beta, 2 uM, Vero E6, replicates): 85.3%
- inhibition at 5 µM ([3]; Severe acute respiratory syndrome coronavirus 2, Vero C1008, beta, 5 uM, Vero E6, replicates): 99.5%
- inhibition at 10 µM ([3]; Severe acute respiratory syndrome coronavirus 2, Vero C1008, beta, 10 uM, Vero E6, replicates): 99.9%
- inhibition at 50 µM ([3]; Severe acute respiratory syndrome coronavirus 2, Vero C1008, beta, 50 uM, Vero E6, replicates): 99.9%
- EC90 ([3]; Severe acute respiratory syndrome coronavirus 2, Vero C1008, read-out: EC90 (Confidence 95%), Vero-E6, Beta B.1.351): 2.32 µM
- % Inhibition ([3]; 1 uM, Vero E6, replicates): 23.8494%
- % Inhibition ([3]; 2 uM, Vero E6, replicates): 80.342%
- % Inhibition ([3]; 5 uM, Vero E6, replicates): 99.4744%
- % Inhibition ([3]; 10 uM, Vero E6, replicates): 99.9464%
- % Inhibition ([3]; 50 uM, Vero E6, replicates): 99.9252%
- pEC50 [3]: 5.87
- pEC50 ([4]; Severe acute respiratory syndrome coronavirus 2, Huh-7, read-out: EC50 (Confidence 95%) in Huh7 cells): 5.76
- EC90 ([4]; Severe acute respiratory syndrome coronavirus 2, Huh-7, read-out: EC90 (Confidence 95%) in Huh7 cells): 2.08 µM
- cell viability (% of control) ([5]; 0.1 μM compound, 0.1 µM): 105.342 % of control
- cell viability (% of control) ([5]; 1 μM compound, 1 µM): 107.061 % of control and 113.737 % of control
- cell viability (% of control) ([5]; 2 μM compound, 2 µM): 117.342 % of control and 112.354 % of control and 107.242 % of control
- cell viability (% of control) ([5]; 5 μM compound, 5 µM): 121.028 % of control and 116.731 % of control
- cell viability (% of control) ([5]; 10 μM compound, 10 µM): 98.5418 % of control and 94.9348 % of control and 94.7813 % of control
- cell viability (% of control) ([5]; 20 μM compound, 20 µM): 98.3543 % of control and 95.3243 % of control and 95.3532 % of control
- cell viability (% of control) ([5]; 50 μM compound, 50 µM): 93.3231 % of control and 94.7045 % of control and 94.3208 % of control
- CC50 at 48 h [6]: > 50 µM
- pEC50 ([7]; Severe acute respiratory syndrome coronavirus 2, Vero C1008, 48 h, read-out: EC50 in Vero E6 cells, SARS-CoV-2 (Delta, B.1.617.2)): 6.02
- inhibition at 0.01 µM ([7]; Severe acute respiratory syndrome coronavirus 2, Vero C1008, delta, 0.01 uM, Vero E6, replicates): 0%
- inhibition at 0.1 µM ([7]; Severe acute respiratory syndrome coronavirus 2, Vero C1008, delta, 0.1 uM, Vero E6, replicates): 0%
- inhibition at 0.25 µM ([7]; Severe acute respiratory syndrome coronavirus 2, Vero C1008, delta, 0.25 uM, Vero E6, replicates): 0%
- inhibition at 0.5 µM ([7]; Severe acute respiratory syndrome coronavirus 2, Vero C1008, delta, 0.5 uM, Vero E6, replicates): 0%
- inhibition at 2 µM ([7]; Severe acute respiratory syndrome coronavirus 2, Vero C1008, delta, 2 uM, Vero E6, replicates): 94.9%
- inhibition at 5 µM ([7]; Severe acute respiratory syndrome coronavirus 2, Vero C1008, delta, 5 uM, Vero E6, replicates): 97%
- inhibition at 10 µM ([7]; Severe acute respiratory syndrome coronavirus 2, Vero C1008, delta, 10 uM, Vero E6, replicates): 98.7%
- inhibition at 50 µM ([7]; Severe acute respiratory syndrome coronavirus 2, Vero C1008, delta, 50 uM, Vero E6, replicates): 99.8%
- EC90 ([7]; Severe acute respiratory syndrome coronavirus 2, Vero C1008, read-out: EC90 (Confidence 95%), Vero-E6, Delta B.1.617.2): 1.35 µM
- % Inhibition ([7]; 1 uM, Vero E6, replicates): 66.6762% and 46.4634%
- % Inhibition ([7]; 2 uM, Vero E6, replicates): 93.4361%
- % Inhibition ([7]; 5 uM, Vero E6, replicates): 94.7905%
- % Inhibition ([7]; 10 uM, Vero E6, replicates): 95.0345%
- % Inhibition ([7]; 50 uM, Vero E6, replicates): 98.9856%
- pEC50 ([8]; read-out: EC50 (Confidence 95%), replicon): 6.02
- EC90 ([8]; read-out: EC90 (Confidence 95%), replicon): 3.25 µM
- Cmax ([9]; GS-441524 in brain): 0.073 µmol/kg
- Cmax ([9]; GS-441524 in kidney): 35.165 µmol/kg
- Cmax ([9]; GS-441524 in liver): 8.776 µmol/kg
- Cmax ([9]; GS-441524 in lung): 5.601 µmol/kg
- Cmax, RTP in kidney ([9]; 1h): 0 nmol/kg
- Cmax, RTP in lung ([9]; 1h): 0 nmol/kg
- Cmax, GS-441525 in brain ([9]; 1h, 100 mg/kg): 0.094 nmol/kg and 0 nmol/kg and 0.045 nmol/kg
- Cmax, GS-441525 in kidney ([9]; 1h, 100 mg/kg): 42.2 nmol/kg and 25.492 nmol/kg and 37.804 nmol/kg
- Cmax, GS-441525 in lung ([9]; 1h, 100 mg/kg): 6.048 nmol/kg and 4.152 nmol/kg and 6.604 nmol/kg
- Cmax, GS-441525 in brain ([9]; 4h): 0 nmol/kg
- Cmax, RTP in kidney ([9]; 4h): 0 nmol/kg
- Cmax, GS-441525 in kidney ([9]; 4h, 100 mg/kg): 28.184 nmol/kg and 26.156 nmol/kg and 22.136 nmol/kg
- Cmax, GS-441525 in lung ([9]; 4h, 100 mg/kg): 4.468 nmol/kg and 3.046 nmol/kg and 3.148 nmol/kg
- Cmax, RTP in lung ([9]; 4h, 100 mg/kg): 0 nmol/kg (2×) and 0.0718 nmol/kg
- Cmax, RTP in kidney ([9]; 24h): 0 nmol/kg
- Cmax, GS-441525 in brain ([9]; 24h, 100 mg/kg): 0.0569 nmol/kg and 0.0928 nmol/kg and 0.0692 nmol/kg
- Cmax, GS-441525 in kidney ([9]; 24h, 100 mg/kg): 0.0683 nmol/kg and 0.0848 nmol/kg and 0.152 nmol/kg
- Cmax, GS-441525 in lung ([9]; 24h, 100 mg/kg): 0.134 nmol/kg and 0.0467 nmol/kg and 0.0435 nmol/kg
- Cmax, RTP in lung ([9]; 24h, 100 mg/kg): 0 nmol/kg (2×) and 0.04488 nmol/kg

From article PMC9161374 (Science Translational Medicine, 2022)
